The values that follow come from paper PMC9858543, “Design, synthesis and evaluation of 2, 6, 8-substituted Imidazopyridine derivatives as potent PI3Kα inhibitors” (Journal of Enzyme Inhibition and Medicinal Chemistry, 2023).

One series concerns the target T1, CYP2D6 (Homo sapiens, UniProt P10635).
T1 construct: tissue Lot No. 38292; host or cells: human liver microsomes
Nature of the series: CYP450 inhibition assay in human liver microsomes. Format: in vitro ADME. Particulars: 10 μM. The method, then:
(§1) Cytochrome P450 inhibition was evaluated in human liver microsomes (0.253 mg/mL, Lot No. 38292) using five specific probe substrates (CYP1A2, 10 μM phenacetin; CYP2D6, 5 μM dextromethorphan; and CYP3A4, 2 μM midazolam; 2C9, 5 μM Diclofenac; 2C19, 30 μM S-mephenytoin) and positive control in the presence of multiple concentrations of the test compound. After pre-warm at 37 °C for 10 min, the reaction was initiated by the addition of NADPH. The mixture was incubated at 37 °C for 10 min, terminated by the addition of cold stop solution (200 ng/mL tolbutamide and 200 ng/mL labetalol in acetonitrile). The samples were centrifuged, and the supernatants were analysed by LC − MS/MS.
In general terms: Microsomes from liver hold many membrane-bound enzymes, among them those of drug oxidation.

The next series concerns the target T2, CYP3A4 (Homo sapiens, UniProt P08684).
T2 construct: tissue Lot No. 38292; host or cells: human liver microsomes
Briefly: CYP450 inhibition assay in human liver microsomes. The series is classed as in vitro ADME. Particulars: 10 μM. The method, then:
as §1

The target of another series is T3, CYP2C19 (Homo sapiens, UniProt P33261).
T3 construct: tissue Lot No. 38292; host or cells: human liver microsomes
T3 sequence (P33261 whole entry): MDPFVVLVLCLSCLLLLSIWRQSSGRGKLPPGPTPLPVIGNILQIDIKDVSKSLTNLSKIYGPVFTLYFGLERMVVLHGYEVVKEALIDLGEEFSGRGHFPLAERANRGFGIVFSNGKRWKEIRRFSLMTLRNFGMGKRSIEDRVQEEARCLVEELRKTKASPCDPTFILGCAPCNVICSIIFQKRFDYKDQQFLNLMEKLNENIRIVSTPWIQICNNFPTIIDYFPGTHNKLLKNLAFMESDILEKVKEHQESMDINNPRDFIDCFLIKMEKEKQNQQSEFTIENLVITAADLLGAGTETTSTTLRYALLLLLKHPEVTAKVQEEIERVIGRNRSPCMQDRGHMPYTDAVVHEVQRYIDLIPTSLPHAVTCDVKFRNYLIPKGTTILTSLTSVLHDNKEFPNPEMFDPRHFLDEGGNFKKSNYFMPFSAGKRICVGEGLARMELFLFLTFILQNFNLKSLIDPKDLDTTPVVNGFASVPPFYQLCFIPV
Briefly: CYP450 inhibition assay in human liver microsomes. Particulars: 10 μM. Format: in vitro ADME. The method, then:
as §1

For a further series, the target named is T4, CYP1A2 (Homo sapiens, UniProt P05177).
T4 construct: tissue Lot No. 38292; host or cells: human liver microsomes
T4 sequence (P05177 1-516): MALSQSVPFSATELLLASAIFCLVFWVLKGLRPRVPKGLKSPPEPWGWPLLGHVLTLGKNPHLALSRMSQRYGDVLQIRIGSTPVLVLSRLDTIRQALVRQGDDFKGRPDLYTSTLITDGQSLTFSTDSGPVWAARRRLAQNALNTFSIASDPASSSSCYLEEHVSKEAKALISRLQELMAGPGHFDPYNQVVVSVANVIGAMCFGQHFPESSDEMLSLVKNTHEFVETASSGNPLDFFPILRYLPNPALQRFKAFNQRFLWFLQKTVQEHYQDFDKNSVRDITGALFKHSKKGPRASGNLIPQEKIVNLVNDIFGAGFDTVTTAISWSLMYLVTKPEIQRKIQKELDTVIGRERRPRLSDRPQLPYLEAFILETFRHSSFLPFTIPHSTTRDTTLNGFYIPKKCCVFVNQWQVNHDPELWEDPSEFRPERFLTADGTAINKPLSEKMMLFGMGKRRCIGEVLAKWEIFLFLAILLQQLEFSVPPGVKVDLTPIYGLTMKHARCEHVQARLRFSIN
Nature of the series: CYP450 inhibition assay in human liver microsomes. The series is classed as in vitro ADME. The conditions noted are these: 10 μM. The method, then:
as §1

In a further series the test system is NCI-H1975. Nature of the series: Cell proliferation assay (CellTiter-Glo), NCI-H1975. Format: cell-based. The conditions noted are these: Homo sapiens, 72 h exposure, mean ± SD of two experiments. The method, then:
(§2) Given the desirable enzyme activity profile, these compounds were further assayed for their antiproliferative activities against five independent human tumour cell line collections harbouring PIK3CA mutation, including human ovarian cancer cell line SKOV-3, human breast cancer T47D and MCF-7, human lung cancer H1975 and H460. […] In general, the cellular activity of tested derivatives corrected with their effects on kinase activity.
(§3) All target compounds were evaluated for antiproliferative potency against SKOV-3, T47D,NCI-H1975, NCI-H460,and MCF-7 tumour cell lines using a CellTiter-Glo® Luminescent Cell Viability Assay. The human tumour cell lines used were obtained from the ATCC or Shanghai ZhongQiaoXinZhou Biotech. All the mediums and FBS were Gibco. T47D, H1975 and NCI-H460 tumour cells were cultured in RPMI1640 medium supplemented with 10% FBS. SKOV-3 was cultured in McCoy’s 5 A medium supplemented with 10%FBS. The day before treatment with compounds, cells were seeded at a density of 2000 or 5000 in each well of a 96-well plate. The tumour cells were then treated with 3-fold serial diluted compound or DMSO control in the incubator at 37 °C and 5% CO2 for 3 days, prior to the addition of CellTiter-Glo reagents (Promega) and reading of luminescence using a PerkinElmer Envision plate reader. Data were analysed using GraphPad Prism 7.0.

The test system of a further series is NCI-H460. Nature of the series: Cell proliferation assay (CellTiter-Glo), NCI-H460. Format: cell-based. The conditions noted are these: Homo sapiens, 72 h exposure, mean ± SD of two experiments. Here is the method: as §2, §3
In general terms: In ATP-based viability assays light output follows the ATP content of the culture.

Series [1] is described as follows: Liver microsomal stability assay, HLM. The series is classed as in vitro ADME, human. The method, then:
The metabolic stability of compound 35 was determined in human or SD rat liver microsomes, with and without the NADPH regenerating system. Briefly, compound 35 was incubated with microsomes (human microsome, CORNING, lot No. 38296; rat microsome, Xenotech, Lot No. 2110178) (0.5 mg protein/mL) at 1 μM at 37 °C in potassium phosphate buffer (100 mM at pH 7.4 with 10 mM MgCl2). The reactions were initiated by adding prewarmed cofactors (1 mmol NADPH). After incubation for different times (0, 5, 10, 20, 30, and 60 min) at 37 °C, cold acetonitrile containing 200 ng/mL tolbutamide and 200 ng/mL labetalol as internal standards was added to precipitate the protein. Then, the samples were centrifuged, and the supernatants were transferred into HPLC water, mixed by plate shaker for 10 min prior to LC − MS/MS analysis.

For another series, the system named is T47D cells. Nature of the series: Cell cycle analysis, PI flow cytometry. Particulars: 24 h. The series is classed as cell-based, human. The method, then: Considering compound 35 was most sensitive in T47D cells, we decided to get some mechanistic insight into the mode of action in T47D cell line. As such, the annexin V/7-AAD staining and cell cycle phase distribution have been carried out. […] Furthermore, T47D cells were also treated with different concentrations of 35, and the percentage of apoptotic cells was measured.
For cell cycle analysis, T47D cell (1 × 10^6) were seeded in 6-well plates overnight and treated with different concentrations of compound 35 and DMSO control on the next day. After 24 h, the cells were collected by EDTA-free trypsinization, centrifuged at 1500 rpm for 5 min, and fixed in 75% ethanol at −20 °C for 1 h. The cells were then centrifuged at 2000 rpm for 5 min, resuspended in 500 µL PI/Rnase Staining Buffer, incubated for 30 min at room temperature, and analysed using flow cytometry. The data were analysed using Modfit software. For cell apoptosis analysis, T47D cell were seeded in 6 well-plates and treated with DMSO or compound 35 for 24 h. The treated cells were collected and washed with cold PBS for three times, resuspended in 185 µL binding buffer containing 5 μL Annexin V-FITC Apoptosis Detection Kit and 10 μL 7-AAD Viability Staining Solution for 15 min at room temperature in the dark. Apoptotic cells were analysed by flow cytometer.
A general note: Flow cytometry measures light scatter and fluorescence of single cells or particles in a stream.

T1 sequence (P10635 whole entry): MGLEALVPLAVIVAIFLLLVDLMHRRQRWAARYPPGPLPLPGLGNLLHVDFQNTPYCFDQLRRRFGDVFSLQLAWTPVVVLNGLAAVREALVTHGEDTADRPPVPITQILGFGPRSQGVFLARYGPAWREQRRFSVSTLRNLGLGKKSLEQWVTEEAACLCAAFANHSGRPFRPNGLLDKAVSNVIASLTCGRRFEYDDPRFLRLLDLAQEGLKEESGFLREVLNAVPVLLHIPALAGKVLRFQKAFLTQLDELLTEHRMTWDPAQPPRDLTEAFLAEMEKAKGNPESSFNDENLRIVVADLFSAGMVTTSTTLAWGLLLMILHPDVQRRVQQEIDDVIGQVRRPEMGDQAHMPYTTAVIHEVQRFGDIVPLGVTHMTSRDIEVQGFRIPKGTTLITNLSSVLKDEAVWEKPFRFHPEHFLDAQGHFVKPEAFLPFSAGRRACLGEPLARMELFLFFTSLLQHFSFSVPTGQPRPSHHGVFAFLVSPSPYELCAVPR
T2 sequence (P08684 whole entry): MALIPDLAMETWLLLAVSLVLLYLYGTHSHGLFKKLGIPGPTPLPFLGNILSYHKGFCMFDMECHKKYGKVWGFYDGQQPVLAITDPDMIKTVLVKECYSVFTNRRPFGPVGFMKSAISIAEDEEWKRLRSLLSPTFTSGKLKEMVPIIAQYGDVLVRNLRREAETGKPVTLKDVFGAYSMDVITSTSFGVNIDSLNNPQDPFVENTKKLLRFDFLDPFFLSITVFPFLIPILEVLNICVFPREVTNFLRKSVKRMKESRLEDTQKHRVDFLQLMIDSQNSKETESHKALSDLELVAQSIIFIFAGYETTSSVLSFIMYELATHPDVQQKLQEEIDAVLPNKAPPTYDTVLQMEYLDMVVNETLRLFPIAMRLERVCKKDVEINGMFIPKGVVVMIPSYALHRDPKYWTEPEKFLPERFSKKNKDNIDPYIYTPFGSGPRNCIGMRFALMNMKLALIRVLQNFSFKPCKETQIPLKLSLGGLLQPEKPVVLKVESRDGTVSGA

Take `COc1ncc(-c2cc(C)cn3cc(C(=O)N4CCCC4)nc23)cc1NS(=O)(=O)c1ccc(F)cc1` [Compound 35, 4-Fluoro-N-(2-methoxy-5–(6-methyl-2-(pyrrolidine-1-carbonyl)Imidazo[1,2-a]pyridin-8-yl)pyridin-3-yl)benzenesulfonamide]: at CYP2D6, the CYP2D6 % inhibition is 13.5%. On CYP3A4, this compound had a CYP3A4 % inhibition of 42.6%. Moreover, on CYP2C19, the CYP2C19 % inhibition was 25.9%. At CYP1A2, this compound yielded a CYP1A2 % inhibition of 9.8%. The figures for the IC50 with NCI-H1975 and in the series with NCI-H460 were 32.1 ± 2.4 µM and 17.7 ± 2 µM, respectively. The “Remaining (T = 60min)” value in series [1] (1 μM, 60 min) stood at 42.7%. Moreover, the microsomal CLint at 1 μM in series [1] (human, human liver microsomes, pH 7.4, 0.5 mg protein/mL, read-out: Metabolic stability CL int) was 30.7 µL/min/mg. Besides, the half-life at 1 μM in series [1] (human, human liver microsomes, pH 7.4, 0.5 mg protein/mL, read-out: Metabolic stability T1/2) was 45.1 min. For the same compound, the cell cycle effect result in the series with T47D cells was “S cell cycle arrest”.
